# Reference: patent publication US20240382629A1, “HETEROBIVALENT AND HOMOBIVALENT AGENTS TARGETING FIBROBLAST ACTIVATION PROTEIN ALPHA AND/OR PROSTATE-SPECIFIC MEMBRANE ANTIGEN” (The Johns Hopkins University, priority 2021, published 2024)
# Where “and” joins values, the source holds several entries; their conditions need not be identical. Identical values can stand only once.
# Test: Biodistribution of representative compounds (Example 13), % ID/g in tissues of tumor-bearing mice
# Type: in vivo, mouse
# [1] = 30 min, 20 μCi per mouse (SA 6500 mCi/μmol)
# [2] = 60 min + Blocker cold FAPI-04 (10 nmole, 6500-fold)
# [3] = 60 min, 20 μCi per mouse (SA 6500 mCi/μmol)
structure (smiles),measurement,setting,value
N#C[C@@H]1CCCN1C(=O)CNC(=O)c1ccnc2ccc(OCCCNC(=O)[C@@H](CC(=O)O)NC(=O)[C@@H](CC(=O)O)NC(=O)c3ccc([18F])nc3)cc12 [[^18F]JHU1221785],% ID/g Bladder (individual mouse),[1],0.93 % ID/g and 4.69 % ID/g
same,% ID/g Blood (individual mouse),[1],5.98 % ID/g and 3.90 % ID/g
same,% ID/g Brain (individual mouse),[1],0.14 % ID/g and 0.15 % ID/g
same,% ID/g Fat (individual mouse),[1],0.21 % ID/g and 0.19 % ID/g
same,% ID/g Femur (individual mouse),[1],2.78 % ID/g and 2.44 % ID/g
same,% ID/g Heart (individual mouse),[1],2.51 % ID/g and 2.01 % ID/g
same,% ID/g Kidney (individual mouse),[1],1.60 % ID/g and 3.33 % ID/g
same,% ID/g Large intestine (individual mouse),[1],0.58 % ID/g and 0.86 % ID/g
same,% ID/g Liver (individual mouse),[1],6.56 % ID/g and 8.08 % ID/g
same,% ID/g Lung (individual mouse),[1],2.77 % ID/g and 2.53 % ID/g
same,% ID/g Mean Bladder,[1],2.81 % ID/g
same,% ID/g Mean Blood,[1],4.94 % ID/g
same,% ID/g Mean Brain,[1],0.14 % ID/g
same,% ID/g Mean Fat,[1],0.20 % ID/g
same,% ID/g Mean Femur,[1],2.61 % ID/g
same,% ID/g Mean Heart,[1],2.26 % ID/g
same,% ID/g Mean Kidney,[1],2.47 % ID/g
same,% ID/g Mean Large intestine,[1],0.72 % ID/g
same,% ID/g Mean Liver,[1],7.32 % ID/g
same,% ID/g Mean Lung,[1],2.65 % ID/g
same,% ID/g Mean Muscle,[1],0.96 % ID/g
same,% ID/g Mean Pancreas,[1],2.31 % ID/g
same,% ID/g Mean Salivary gland,[1],2.93 % ID/g
same,% ID/g Mean Small intestine,[1],2.49 % ID/g
same,% ID/g Mean Spleen,[1],1.00 % ID/g
same,% ID/g Mean Stomach,[1],0.82 % ID/g
same,% ID/g Mean Tumor,[1],1.24 % ID/g
same,% ID/g Muscle (individual mouse),[1],0.81 % ID/g and 1.12 % ID/g
same,% ID/g Pancreas (individual mouse),[1],1.92 % ID/g and 2.71 % ID/g
same,% ID/g Salivery gland (individual mouse),[1],2.81 % ID/g and 3.05 % ID/g
same,% ID/g Small intestine (individual mouse),[1],2.60 % ID/g and 2.38 % ID/g
same,% ID/g Spleen (individual mouse),[1],1.03 % ID/g and 0.97 % ID/g
same,% ID/g Stomach (individual mouse),[1],0.72 % ID/g and 0.92 % ID/g
same,% ID/g Tumor (individual mouse),[1],1.14 % ID/g
same,% ID/g Bladder (individual mouse),[2],0.23 % ID/g and 0.67 % ID/g
same,% ID/g Blood (individual mouse),[2],0.11 % ID/g and 9.26 % ID/g
same,% ID/g Brain (individual mouse),[2],0.02 % ID/g and 0.04 % ID/g
same,% ID/g Fat (individual mouse),[2],0.03 % ID/g and 0.21 % ID/g
same,% ID/g Femur (individual mouse),[2],1.52 % ID/g and 1.50 % ID/g
same,% ID/g Heart (individual mouse),[2],0.06 % ID/g and 0.07 % ID/g
same,% ID/g Kidney (individual mouse),[2],0.41 % ID/g and 0.51 % ID/g
same,% ID/g Large intestine (individual mouse),[2],0.08 % ID/g and 0.33 % ID/g
same,% ID/g Liver (individual mouse),[2],9.42 % ID/g and 10.36 % ID/g
same,% ID/g Lung (individual mouse),[2],0.13 % ID/g and 0.20 % ID/g
same,% ID/g Mean Bladder,[2],0.43 % ID/g
same,% ID/g Mean Blood,[2],4.68 % ID/g
same,% ID/g Mean Brain,[2],0.03 % ID/g
same,% ID/g Mean Fat,[2],0.12 % ID/g
same,% ID/g Mean Femur,[2],1.51 % ID/g
same,% ID/g Mean Heart,[2],0.07 % ID/g
same,% ID/g Mean Kidney,[2],0.46 % ID/g
same,% ID/g Mean Large intestine,[2],0.20 % ID/g
same,% ID/g Mean Liver,[2],9.69 % ID/g
same,% ID/g Mean Lung,[2],0.17 % ID/g
same,% ID/g Mean Muscle,[2],0.06 % ID/g
same,% ID/g Mean Pancreas,[2],0.13 % ID/g
same,% ID/g Mean Salivary gland,[2],0.05 % ID/g
same,% ID/g Mean Small intestine,[2],3.54 % ID/g
same,% ID/g Mean Spleen,[2],0.16 % ID/g
same,% ID/g Mean Stomach,[2],0.16 % ID/g
same,% ID/g Mean Tumor,[2],0.10 % ID/g
same,% ID/g Muscle (individual mouse),[2],0.04 % ID/g and 0.07 % ID/g
same,% ID/g Pancreas (individual mouse),[2],0.05 % ID/g and 0.22 % ID/g
same,% ID/g Salivery gland (individual mouse),[2],0.04 % ID/g and 0.06 % ID/g
same,% ID/g Small intestine (individual mouse),[2],0.88 % ID/g and 6.19 % ID/g
same,% ID/g Spleen (individual mouse),[2],0.08 % ID/g and 0.25 % ID/g
same,% ID/g Stomach (individual mouse),[2],0.09 % ID/g and 0.23 % ID/g
same,% ID/g Tumor (individual mouse),[2],0.08 % ID/g and 0.11 % ID/g
same,% ID/g Bladder (individual mouse),[3],0.76 % ID/g and 0.92 % ID/g
same,% ID/g Blood (individual mouse),[3],2.56 % ID/g and 4.57 % ID/g
same,% ID/g Brain (individual mouse),[3],0.09 % ID/g and 0.12 % ID/g
same,% ID/g Fat (individual mouse),[3],0.22 % ID/g and 0.12 % ID/g
same,% ID/g Femur (individual mouse),[3],2.06 % ID/g and 2.07 % ID/g
same,% ID/g Heart (individual mouse),[3],1.38 % ID/g and 1.73 % ID/g
same,% ID/g Kidney (individual mouse),[3],0.79 % ID/g and 1.04 % ID/g
same,% ID/g Large intestine (individual mouse),[3],0.61 % ID/g and 0.78 % ID/g
same,% ID/g Liver (individual mouse),[3],7.41 % ID/g and 8.27 % ID/g
same,% ID/g Lung (individual mouse),[3],1.70 % ID/g and 2.65 % ID/g
same,% ID/g Mean Bladder,[3],0.84 % ID/g
same,% ID/g Mean Blood,[3],3.57 % ID/g
same,% ID/g Mean Brain,[3],0.10 % ID/g
same,% ID/g Mean Fat,[3],0.22 % ID/g
same,% ID/g Mean Femur,[3],2.07 % ID/g
same,% ID/g Mean Heart,[3],1.56 % ID/g
same,% ID/g Mean Kidney,[3],0.91 % ID/g
same,% ID/g Mean Large intestine,[3],0.69 % ID/g
same,% ID/g Mean Liver,[3],7.84 % ID/g
same,% ID/g Mean Lung,[3],2.18 % ID/g
same,% ID/g Mean Muscle,[3],0.98 % ID/g
same,% ID/g Mean Pancreas,[3],2.07 % ID/g
same,% ID/g Mean Salivary gland,[3],3.45 % ID/g
same,% ID/g Mean Small intestine,[3],1.83 % ID/g
same,% ID/g Mean Spleen,[3],0.93 % ID/g
same,% ID/g Mean Stomach,[3],0.71 % ID/g
same,% ID/g Mean Tumor,[3],2.23 % ID/g
same,% ID/g Muscle (individual mouse),[3],1.03 % ID/g and 0.69 % ID/g
same,% ID/g Pancreas (individual mouse),[3],1.96 % ID/g and 2.17 % ID/g
same,% ID/g Salivery gland (individual mouse),[3],2.17 % ID/g and 4.73 % ID/g
same,% ID/g Small intestine (individual mouse),[3],1.65 % ID/g and 2.01 % ID/g
same,% ID/g Spleen (individual mouse),[3],0.78 % ID/g and 1.09 % ID/g
same,% ID/g Stomach (individual mouse),[3],0.60 % ID/g and 0.81 % ID/g
same,% ID/g Tumor (individual mouse),[3],2.99 % ID/g and 1.47 % ID/g
